Results on seven molecules are retold here after US8492567B2, “(Poly)Aminoalkylaminoalkylamide, alkyl-urea, or alkyl-sulfonamide derivatives of epipodophyllotoxin, a process for preparing them, and application thereof in therapy as anticancer agents” (Pierre Fabre Medicament, priority 2008, dated 2013).

Data set [1] has as its system A549 human line (non-small cell lung cancer). The data set is described as follows: Cytotoxicity test: cell growth inhibition of the A549 human line (ATP-lite luminescence). The class given is cell-based. To be noted: A549 cells, 48 hrs incubation with compound, read-out: IC50 (concentration providing a 50% inhibition of cell proliferation). How it is done: A cytotoxicity test is used. It measures the cell growth inhibition of the A549 human line (non-small cell lung cancer):
The A549 tumor cells are plated in a 96-well plate in RPMI 1640 medium free of phenol red (Seromed) to which is added 5% of fetal calf serum (100 μl/well, 1.25×10^4 cells/ml). After incubation for 24 hrs at 37° C. in an incubator at 5% CO2, the medium is replaced by that containing the compound to be tested, followed by incubation of the plates for another 48 hrs. Cell survival is assessed by measuring the luminescence after salting-out of the ATP from the medium using the cell lysis, luciferase and luciferine solutions included in the ATP-lite-M™ kit following the manufacturer's guidelines (Packard, Rungis, France). Each experimental condition was tested at least three times in sixplicate.

The subject of another data set is P388 murine leukemia. The data set is described as follows: Experimental P388 tumor model, survival of mice. The class given is in vivo. To be noted: dose of 0.16 mg/kg. An excerpt: Experimental P388 tumor model. The model used is P388 murine leukemia (Tumor Models in Cancer Research. Teicher, B. A. ed., Humana Press Inc., Totowa, N.J. Pp. 23-40, 2002), which is maintained by sequential intraperitoneal transplantations in DBA/2 mice (DBA/2JIco mice, Charles River), as previously disclosed (Classic in vivo cancer models: Three examples of mouse models used in experimental therapeutics. Current Protocols in Pharmacology Unit 5.24: 5.24.1-5.24.16, 2001).
The experiment is carried out according to a previously disclosed protocol (Cancer Chemother. Pharmacol. 1998, 41, 437-447). This comprises implanting 10^6 P388 leukemia cells per mouse into C2DF1 hybrid mice (CD2F1/CrlBR, Charles River, St Aubin-les-Elbeuf, France) intravenously at day zero. After the animals have been randomized in treatment and control cages, the compounds to be tested are administered in one single injection by intraperitoneal route the day after the tumor transplantation, at day 1. The animals are then monitored every day, weighed twice per week, and any clinical reaction is recorded. The survival rate is the parameter used to assess antitumor activity. […] The T/Csurvival ratio is calculated for each dosage and the largest value obtained represents the maximum increase in survival rate achieved (maximum activity), which is defined as the optimum T/Csurvival ratio.

SMILES strings stand for the structures. Structures can show the parent of a compound that is named as a salt.

Consider `COc1cc(C2c3cc4c(cc3[C@@H](NC(=O)NCCCNCCCCNCCCN)[C@H]3COC(=O)[C@H]23)OCO4)cc(OC)c1O` (stereo partly drawn) [Compound 48, 1-{3-[4-(3-Aminopropylamino)-butylamino]-propyl}-3-[9-(4-hydroxy-3,5-dimethoxyphenyl)-8-oxo-5,5a,6,8,8a,9-hexahydrofuro[3′,4′:6,7]-naphtho[2,3-d][1,3]dioxol-5-yl]-urea], for which, in data set [1], the IC50 turned out to be 12 nM.

What is called melting point is the temperature of the solid-liquid transition. As for `COc1cc(C2c3cc4c(cc3[C@@H](NC(=O)CCCN(C)C)[C@H]3COC(=O)[C@H]23)OCO4)cc(OC)c1O` (stereo in doubt) (as salt: hydrochloride), the melting point came out at 169 °C. For the molecule `COc1cc(C2c3cc4c(cc3[C@@H](NC(=O)CCCNCCCNCCCCNCCCN)[C@H]3COC(=O)[C@H]23)OCO4)cc(OC)c1O` (stereo partly drawn) [Compound 21, 4-{3-[4-(3-Aminopropylamino)-butylamino]-propylamino}-N-[9-(4-hydroxy-3,5-dimethoxyphenyl)-8-oxo-5,5a,6,8,8a,9-hexahydrofuro[3′,4′:6,7]-naphtho[2,3-d][1,3]dioxol-5-yl]-butyramide], the IC50 in data set [1] was determined as 1.7 nM. In the data set with P388 murine leukemia (single intraperitoneal injection at day 1, 10^6 P388 cells intravenously at day 0, mice), the “optimum T/Csurvival value” is recorded as 186%. Moreover, in the data set on P388 murine leukemia (single intraperitoneal injection at day 1, P388 leukemia mice), the “increase in survival rate of the animals” value is listed as 86%. In the case of `COc1cc(C2c3cc4c(cc3[C@@H](NC(=O)CCCN)[C@H]3COC(=O)[C@H]23)OCO4)cc(OC)c1O` (stereo in doubt) (as salt: hydrochloride), the melting point came out at 284 °C. The same measure, in the same setting: then `COc1cc(C2c3cc4c(cc3[C@@H](NC(=O)NCCCNCCCCNCCCN)[C@H]3COC(=O)[C@H]23)OCO4)cc(OC)c1O` (stereo partly drawn) (as salt: hydrochloride) [Compound 48, 1-{3-[4-(3-Aminopropylamino)-butylamino]-propyl}-3-[9-(4-hydroxy-3,5-dimethoxyphenyl)-8-oxo-5,5a,6,8,8a,9-hexahydrofuro[3′,4′:6,7]-naphtho[2,3-d][1,3]dioxol-5-yl]-urea], with 166 °C; and `COc1cc(C2c3cc4c(cc3[C@@H](NS(=O)(=O)CCNCCCNCCCCNCCCN)[C@H]3COC(=O)[C@H]23)OCO4)cc(OC)c1O` (stereo partly drawn) (as salt: hydrochloride), with 191 °C; and `COc1cc(C2c3cc4c(cc3[C@@H](NC(=O)NCCCNCCCNCCCCNCCCN)[C@H]3COC(=O)[C@H]23)OCO4)cc(OC)c1O` (stereo in doubt), with 213 °C.
